COc1ccc2nc(S(=O)Cc3ncc(C)c(OC)c3C)[nH]c2c1 (stereo unspecified)
solubility (mole fraction)
Conditions	in THF	in acetone	in acetonitrile	in ethanol	in ethyl acetate	in methanol	in n-butanol	in water
278.15 K	0.00458	0.00146	0.00118	0.00157	0.000981	0.00206	0.00128	4.07e-05
283.15 K	0.00644	0.00173	0.00143	0.00187	0.00112	0.00264	0.00153	5e-05
288.15 K	0.00843	0.00215	0.00182	0.00224	0.00134	0.00348	0.00196	6.15e-05
293.15 K	0.0113	0.00265	0.00222	0.00261	0.00156	0.00435	0.0024	7.64e-05
298.15 K	0.0146	0.00313	0.00273	0.00347	0.00185	0.00569	0.00303	9.36e-05
303.15 K	0.0196	0.00377	0.00354	0.00413	0.0022	0.00686	0.0037	0.000115
308.15 K	0.0259	0.00464	0.00429	0.00509	0.00253	0.00857	0.00455	0.000138
313.15 K	0.0327	0.00541	0.00513	0.00605	0.00293	0.0106	0.0054	0.000165
318.15 K	0.0425	0.00637	0.00607	0.00702	0.00343	0.0129	0.0065	0.000196
323.15 K	0.0545	0.00739	0.00711	0.00832	0.00405	0.0156	0.00779	0.00023
328.15 K	0.0663	0.0085	0.00843	0.00982	0.0047	0.0186	0.00884	0.000263
333.15 K	0.0789	0.00982	0.00978	0.0113	0.00523	0.0216	0.0103	0.000299

From BigSolDB 2.1
